The values below come from patent US20120003270A1, “6-SUBSTITUTED ISOFLAVONOID COMPOUNDS AND USES THEREOF” (priority 2008, published 2012).

Where only a bound is given, the exact number is not on record here.

Series [1] can be described thus: Free radical scavenging (DPPH). Type of series: biochemical. Particulars: DPPH 0.1 mM, 20 minutes, 517 nm; read-out: Free radical scavenging ability EC50. The protocol:
The antioxidant (free radical trapping) activity of test compounds was assessed using the stable free radical compound 2,2-diphenyl-1-picrylhydrazyl (DPPH). A stock solution of DPPH was prepared at a concentration of 0.1 mM in ethanol and mixed for 10 minutes prior to use. Compound (1) was reacted with DPPH for 20 minutes, after which time the absorbance at 517 nm was determined. The change in absorbance at 517 nm was compared to a reagent blank (DPPH with ethanol alone). The IC50 value was estimated as the concentration of the test compound that caused a 0.6 change in absorbance (with 1.2 absorbance units representing total scavenging of the DPPH radical).
A general note: Loss of DPPH colour is used to gauge radical scavenging.

A further series deals with iNOS. Kind of series: NO synthesis in LPS-stimulated RAW 264.7 (Griess). It counts as cell-based, mouse. Particulars: LPS 50 ng/ml, 16 hrs. The protocol:
The mouse macrophage cell line RAW 264.7 was cultured in DMEM supplemented with foetal calf serum (FCS), 2 mM glutamine and 50 U/ml penicillin/streptomycin. Cells were treated with either the compounds of the formula (I) (in 0.025% DMSO) or vehicle alone, and added one hour before 50 ng/ml LPS, which induces iNOS and the production of NO. After incubation for 16 hrs, culture media was collected. Nitrite concentration is a quantitative indicator of NO production and was determined by the Griess Reaction. Briefly, 100 μL of Griess reagent was added to 50 μL of each supernatant in duplicate. The absorbance at 550 nm was measured (Molecular Devices, SpectraMax 250 microplate spectrophotometer, CA, USA), and nitrite concentrations were determined against a standard curve of sodium nitrite.
(The Griess reaction detects nitrite, a stable product of nitric oxide.)

Series [2] deals with neonatal fibroblast foreskin (NFF). Briefly: Toxicity in normal cells (MTT), NFF. Type of series: cell-based. Particulars: Homo sapiens, 120 h, 5 days, top concentration 150 μM, read-out: Normal cell viability IC50. The protocol:
(§1) Human neonatal fibroblast foreskin (NFF—a gift from Dr. Peter Parsons, Queensland Institute of Medical Research) or rabbit kidney (RK-13—a gift from Prof. Miller Whalley, Macquarie University) cells were seeded into 96 well plates and cultured in RPMI supplemented with 10% FCS (CSL, Australia), penicillin (100 U/ml), streptomycin ([…]), L-glutamine (2 mM) and sodium bicarbonate (1.2 g/L) at 37° C. and 5% CO2 for 24 hours until cells had attached and entered log phase of growth. Test compounds were added in serial two-fold dilutions from 150 μM in triplicate and incubated for a further 5 days. MTT was then added to each well, incubated for 3 hours at 37° C., after which the medium was tipped off. Following the addition of DMSO, the absorbance for each well was read on a plate reader. The assays were repeated at least twice.

Another series deals with THP-1 cells. Briefly: Cytotoxicity in the THP-1 NFκB assay. Type of series: cell-based, human. Conditions: at active concentrations.
Another series concerns TNFα. Briefly: TNFα synthesis in RAW 264.7 (ELISA). It counts as cell-based, mouse. Conditions: LPS 50 ng/ml, 16 hrs. The protocol:
(§2) The mouse macrophage cell line RAW 264.7 was cultured in DMEM supplemented with foetal calf serum (FCS), 2 mM glutamine and 50 U/ml penicillin/streptomycin. Cells were treated with either test compounds (in 0.025% DMSO) or vehicle alone, and added one hour before 50 ng/ml LPS. After incubation for 16 hrs, culture media was collected for PGE2 or TXB2 measurement by ELISA (Cayman Chemical), and TNFα measurement using an ELISA (Becton Dickinson).
A general note: ELISA stands for enzyme-linked immunosorbent assay.

Another series has as its system RAW 264.7. Kind of series: Toxicity in RAW 264.7. It counts as cell-based, mouse.
The next series relates to NFκB. Briefly: NFκB promoter activity in transfected THP-1 cells (beta-lactamase reporter). It counts as cell-based, human. Particulars: THP-1 cells, TNFα-stimulated. As to the method: The assay utilizes a genetically modified THP-1 cell line and GeneBLAzer® beta-lactamase technology (Invitrogen Corp). The human THP-1 monocyte/macrophages contain a stably-transfected beta-lactamase reporter gene under control of the NFkB response element. They respond to stimulation with TNFα, which leads to activation of the NFkB signaling pathway. Co-incubation of cells with TNFα and test material allows quantitative determination of the ability of test material to inhibit TNFα-stimulated beta-lactamase production. An inflammatory index was calculated as the ratio of beta-lactamase product to beta-lactamase substrate.
In brief, genetically modified THP-1 cells were seeded into wells of a 96-well plate (50×10^3 cells/well) in the presence of RPMI 1640 medium (70 μl). TNFα was added to each well (10 μl) to give a final concentration of 7.5 ng/ml. Dialyzed bovine serum was added (10 μl). Test compounds were dissolved in DMSO (10 μL) (5 wells). Each plate contained a no-cell control (4 wells), a no-serum control (4 wells) and two serum controls. Plates were incubated for 5 h at 37° C. to allow for NFkB-stimulated beta-lactamase production. LiveBLAzer™ FRET B/G Substrate (CCF4-AM) substrate was then added to the assay. CCF4-AM is a Förster resonance energy transfer (FRET) based substrate for beta-lactamase developed by Invitrogen Corp. Once CCFA-AM enters a cell, it is converted to negatively charged CCF4 by endogenous esterases. Excitation of this substrate at 409 nm leads to efficient FRET between the coumarin and fluorescein moieties, resulting in a green fluorescence detectable at 530 nm. The presence of beta-lactamase leads to cleavage of CCF4 and results in a loss of FRET, resulting in a robust blue fluorescent signal detectable at 460 nm. Thus, activity of beta-lactamase (a marker of NFkB-promoter activity) is measured as a product to substrate ratio (blue/green fluorescence ratio: 460 nm/530 nm).

Another series concerns TXA2. Briefly: TXA2 synthesis in RAW 264.7 (ELISA). It counts as cell-based, mouse. Particulars: LPS 50 ng/ml, 16 hrs. The protocol: as §2
The test system of the next series is PGE2. Briefly: PGE2 synthesis in RAW 264.7 (ELISA). It counts as cell-based, mouse. Conditions: LPS 50 ng/ml, 16 hrs. The protocol:
as §2

In another series the test system is rabbit kidney (RK-13). Briefly: Toxicity in normal cells (MTT), RK-13. It counts as cell-based. Conditions: Oryctolagus cuniculus, RK-13, 120 h, 5 days, top concentration 150 μM, read-out: Normal cell viability IC50. The protocol:
as §1

In general, EC50 refers to the concentration giving half of the maximal effect. A word on the IC50: it is the concentration needed to halve the response being measured. On to `COC(=O)CNCc1cc2c(cc1O)OCC(c1ccc(O)cc1)=C2` [Compound (2)], for which, in [1], the EC50 was > 100 µM. The “NO” value in the series on iNOS (1 μM) was 16.41 ± 0.0 µM; with iNOS (10 μM), 10.22 ± 0.15 µM. Also, the figures for the IC50 (in [2]; in the series with rabbit kidney (RK-13)) were 145 ± 8.1 µM and > 150 µM, respectively. Moreover, the Cytotoxicity result with THP-1 cells was “absence of cytotoxicity”. The results for the “TNFα” value in the series on TNFα (1 μM) and with TNFα (10 μM) were 35085.88 ± 2273.16 pg/mL and 46065.55 ± 1234.32 pg/mL, respectively. Moreover, in the series on RAW 264.7, the “Effect on the viability of RAW 264.7 cells” value is recorded as “little effect on the viability”. Moreover, the “Effect on promoter activity of NFκB (in words)” value in the series with NFκB is “active at the highest concentration only”. The “TXB2” value in the series on TXA2 (1 μM) is 16.71 ± 3.43 pg/mL; in the series with TXA2 (10 μM), 17.58 ± 7.99 pg/mL. Moreover, the “PGE2” value with PGE2 (1 μM) worked out at 3180.37 ± 127.29 pg/mL; in the series on PGE2 (10 μM), 2070.69 ± 168.81 pg/mL.
